Reference: the NIST ThermoML archive (doi:10.1021/je100765j)

Test: xn = mol fraction of the nth substance listed
Conditions: 101 kPa, Liquid; for speed of sound: Sing-around technique in a fixed-path interferometer

CC(C)(C)Cl [2-chloro-2-methylpropane] + CC(C)OC(C)C
Conditions | mass density [kg/m3] | speed of sound [m/s]
283.15 K, x1 = 0.049 | 738.51 | 1064.9
283.15 K, x1 = 0.0996 | 743.477 | 1064.1
283.15 K, x1 = 0.1991 | 753.625 | 1062.7
283.15 K, x1 = 0.3212 | 766.738 | 1060.7
283.15 K, x1 = 0.4189 | 777.752 | 1059.1
283.15 K, x1 = 0.5148 | 789.053 | 1057.4
283.15 K, x1 = 0.6213 | 802.211 | 1055.4
283.15 K, x1 = 0.7152 | 814.386 | 1053.5
283.15 K, x1 = 0.8138 | 827.84 | 1051.4
283.15 K, x1 = 0.9079 | 841.342 | 1049.2
283.15 K, x1 = 0.9552 | 848.393 | 1048.1
288.15 K, x1 = 0.049 | 733.338 | 1042.5
288.15 K, x1 = 0.0996 | 738.271 | 1041.8
288.15 K, x1 = 0.1991 | 748.35 | 1040.4
288.15 K, x1 = 0.3212 | 761.373 | 1038.5
288.15 K, x1 = 0.4189 | 772.305 | 1037
288.15 K, x1 = 0.5148 | 783.527 | 1035.4
288.15 K, x1 = 0.6213 | 796.59 | 1033.5
288.15 K, x1 = 0.7152 | 808.683 | 1031.8
288.15 K, x1 = 0.8138 | 822.038 | 1029.8
288.15 K, x1 = 0.9079 | 835.444 | 1027.7
288.15 K, x1 = 0.9552 | 842.442 | 1026.6
293.15 K, x1 = 0.049 | 728.121 | 1020
293.15 K, x1 = 0.0996 | 733.024 | 1019.4
293.15 K, x1 = 0.1991 | 743.024 | 1018
293.15 K, x1 = 0.3212 | 755.959 | 1016.3
293.15 K, x1 = 0.4189 | 766.815 | 1014.9
293.15 K, x1 = 0.5148 | 777.959 | 1013.4
293.15 K, x1 = 0.6213 | 790.929 | 1011.6
293.15 K, x1 = 0.7152 | 802.935 | 1010
293.15 K, x1 = 0.8138 | 816.189 | 1008.1
293.15 K, x1 = 0.9079 | 829.491 | 1006.1
293.15 K, x1 = 0.9552 | 836.437 | 1005.1
298.15 K, x1 = 0.049 | 722.867 | 997.71
298.15 K, x1 = 0.0996 | 727.738 | 997.09
298.15 K, x1 = 0.1991 | 737.666 | 995.89
298.15 K, x1 = 0.3212 | 750.506 | 994.32
298.15 K, x1 = 0.4189 | 761.286 | 993.03
298.15 K, x1 = 0.5148 | 772.351 | 991.68
298.15 K, x1 = 0.6213 | 785.228 | 990.11
298.15 K, x1 = 0.7152 | 797.145 | 988.62
298.15 K, x1 = 0.8138 | 810.301 | 986.91
298.15 K, x1 = 0.9079 | 823.502 | 985.13
298.15 K, x1 = 0.9552 | 830.397 | 984.18
303.15 K, x1 = 0.049 | 717.578 | 975.46
303.15 K, x1 = 0.0996 | 722.411 | 974.84
303.15 K, x1 = 0.1991 | 732.264 | 973.65
303.15 K, x1 = 0.3212 | 745.015 | 972.13
303.15 K, x1 = 0.4189 | 755.716 | 970.88
303.15 K, x1 = 0.5148 | 766.702 | 969.59
303.15 K, x1 = 0.6213 | 779.48 | 968.1
303.15 K, x1 = 0.7152 | 791.311 | 966.67
303.15 K, x1 = 0.8138 | 804.371 | 965.04
303.15 K, x1 = 0.9079 | 817.469 | 963.34
303.15 K, x1 = 0.9552 | 824.312 | 962.38
308.15 K, x1 = 0.049 | 712.24 | 953.42
308.15 K, x1 = 0.0996 | 717.041 | 952.84
308.15 K, x1 = 0.1991 | 726.821 | 951.71
308.15 K, x1 = 0.3212 | 739.479 | 950.28
308.15 K, x1 = 0.4189 | 750.102 | 949.13
308.15 K, x1 = 0.5148 | 761.005 | 947.93
308.15 K, x1 = 0.6213 | 773.688 | 946.56
308.15 K, x1 = 0.7152 | 785.433 | 945.25
308.15 K, x1 = 0.8138 | 798.394 | 943.74
308.15 K, x1 = 0.9079 | 811.393 | 942.17
308.15 K, x1 = 0.9552 | 818.179 | 941.27
313.15 K, x1 = 0.049 | 706.86 | 931.51
313.15 K, x1 = 0.0996 | 711.627 | 930.96
313.15 K, x1 = 0.1991 | 721.331 | 929.87
313.15 K, x1 = 0.3212 | 733.893 | 928.52
313.15 K, x1 = 0.4189 | 744.44 | 927.44
313.15 K, x1 = 0.5148 | 755.257 | 926.35
313.15 K, x1 = 0.6213 | 767.848 | 925.1
313.15 K, x1 = 0.7152 | 779.502 | 923.88
313.15 K, x1 = 0.8138 | 792.364 | 922.47
313.15 K, x1 = 0.9079 | 805.264 | 921
313.15 K, x1 = 0.9552 | 811.999 | 920.15

CCCCCl [1-chlorobutane] + CC(C)OC(C)C
Conditions | mass density [kg/m3] | speed of sound [m/s]
283.15 K, x1 = 0.0466 | 740.095 | 1070.9
283.15 K, x1 = 0.0991 | 747.139 | 1076.6
283.15 K, x1 = 0.1918 | 759.833 | 1087
283.15 K, x1 = 0.32 | 778.726 | 1101.5
283.15 K, x1 = 0.4199 | 793.339 | 1112.3
283.15 K, x1 = 0.516 | 808.586 | 1123.3
283.15 K, x1 = 0.623 | 826.434 | 1135.5
283.15 K, x1 = 0.7154 | 842.63 | 1146.3
283.15 K, x1 = 0.8157 | 861.003 | 1158.2
283.15 K, x1 = 0.9098 | 879.099 | 1169.3
283.15 K, x1 = 0.9559 | 888.28 | 1174.9
288.15 K, x1 = 0.0466 | 734.99 | 1048.6
288.15 K, x1 = 0.0991 | 741.966 | 1054.3
288.15 K, x1 = 0.1918 | 754.629 | 1064.7
288.15 K, x1 = 0.32 | 773.471 | 1079.4
288.15 K, x1 = 0.4199 | 788.055 | 1090.3
288.15 K, x1 = 0.516 | 803.274 | 1101.5
288.15 K, x1 = 0.623 | 821.073 | 1114
288.15 K, x1 = 0.7154 | 837.246 | 1125
288.15 K, x1 = 0.8157 | 855.588 | 1137
288.15 K, x1 = 0.9098 | 873.635 | 1148.4
288.15 K, x1 = 0.9559 | 882.81 | 1154.2
293.15 K, x1 = 0.0466 | 729.792 | 1026.2
293.15 K, x1 = 0.0991 | 736.75 | 1032
293.15 K, x1 = 0.1918 | 749.383 | 1042.5
293.15 K, x1 = 0.32 | 768.192 | 1057.3
293.15 K, x1 = 0.4199 | 782.731 | 1068.4
293.15 K, x1 = 0.516 | 797.924 | 1079.7
293.15 K, x1 = 0.623 | 815.68 | 1092.4
293.15 K, x1 = 0.7154 | 831.821 | 1103.6
293.15 K, x1 = 0.8157 | 850.133 | 1115.9
293.15 K, x1 = 0.9098 | 868.142 | 1127.6
293.15 K, x1 = 0.9559 | 877.303 | 1133.4
298.15 K, x1 = 0.0466 | 724.56 | 1003.8
298.15 K, x1 = 0.0991 | 731.492 | 1009.7
298.15 K, x1 = 0.1918 | 744.091 | 1020.2
298.15 K, x1 = 0.32 | 762.854 | 1035.2
298.15 K, x1 = 0.4199 | 777.351 | 1046.6
298.15 K, x1 = 0.516 | 792.506 | 1058
298.15 K, x1 = 0.623 | 810.177 | 1071
298.15 K, x1 = 0.7154 | 826.321 | 1082.3
298.15 K, x1 = 0.8157 | 844.587 | 1094.8
298.15 K, x1 = 0.9098 | 862.556 | 1106.6
298.15 K, x1 = 0.9559 | 871.691 | 1112.7
303.15 K, x1 = 0.0466 | 719.283 | 981.56
303.15 K, x1 = 0.0991 | 726.204 | 987.54
303.15 K, x1 = 0.1918 | 738.777 | 998.37
303.15 K, x1 = 0.32 | 757.526 | 1013.6
303.15 K, x1 = 0.4199 | 771.984 | 1024.8
303.15 K, x1 = 0.516 | 787.119 | 1036.5
303.15 K, x1 = 0.623 | 804.761 | 1049.6
303.15 K, x1 = 0.7154 | 820.882 | 1061.1
303.15 K, x1 = 0.8157 | 839.124 | 1073.8
303.15 K, x1 = 0.9098 | 857.076 | 1085.9
303.15 K, x1 = 0.9559 | 866.204 | 1092
308.15 K, x1 = 0.0466 | 713.967 | 959.5
308.15 K, x1 = 0.0991 | 720.87 | 965.54
308.15 K, x1 = 0.1918 | 733.414 | 976.43
308.15 K, x1 = 0.32 | 752.126 | 991.71
308.15 K, x1 = 0.4199 | 766.553 | 1003.3
308.15 K, x1 = 0.516 | 781.656 | 1015
308.15 K, x1 = 0.623 | 799.266 | 1028.4
308.15 K, x1 = 0.7154 | 815.358 | 1040.1
308.15 K, x1 = 0.8157 | 833.567 | 1053
308.15 K, x1 = 0.9098 | 851.486 | 1065.3
308.15 K, x1 = 0.9559 | 860.595 | 1071.5
313.15 K, x1 = 0.0466 | 708.604 | 937.74
313.15 K, x1 = 0.0991 | 715.486 | 943.72
313.15 K, x1 = 0.1918 | 728.002 | 954.72
313.15 K, x1 = 0.32 | 746.649 | 970.22
313.15 K, x1 = 0.4199 | 761.063 | 981.83
313.15 K, x1 = 0.516 | 776.136 | 993.77
313.15 K, x1 = 0.623 | 793.704 | 1007.3
313.15 K, x1 = 0.7154 | 809.769 | 1019.1
313.15 K, x1 = 0.8157 | 827.935 | 1032.2
313.15 K, x1 = 0.9098 | 845.816 | 1044.8
313.15 K, x1 = 0.9559 | 854.913 | 1051.1
